Patent US20240174618A1, “SUBSTITUTED (2-HETEROARYLOXYPHENYL)SULFONATES, SALTS THEREOF AND THEIR USE AS HERBICIDAL AGENTS” (Bayer Aktiengesellschaft, priority 2021, published 2024)

What was measured:
Type in all cases: in vivo
[1] = tested on: Abutilon theophrasti (ABUTH); assay: A. Herbicidal pre-emergence efficacy, ABUTH; conditions: scored visually after about 3 weeks vs untreated controls
In short: (§1)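 Applied before emergence onto covering soil at rates of 1280 g/ha or less, using 600 L/ha spray water with 0.5% additive. Scoring: visual % efficacy after ~3 weeks, greenhouse.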

[2] = tested on: Digitaria sanguinalis (DIGSA); assay: A. Herbicidal pre-emergence efficacy, DIGSA; conditions: scored visually after about 3 weeks vs untreated controls
In short: as §1

Kochia scoparia (KCHSC) [3] = assay: B. Herbicidal post-emergence efficacy, KCHSC; conditions: for Post-emergence efficacy against KCHSC in %: rated visually after about 3 weeks; for Post-emergence efficacy against KCHSC: 1280 g/ha
In short: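 Visual percent efficacy relative to untreated controls (0% unaffected, 100% dead), scored roughly 3 weeks after foliar spraying of one-leaf-stage pot-grown plants with WP or EC preparations at application rates up to 1280 g/ha in 600 L/ha water containing 0.5% additive.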

[4] = tested on: Alopecurus myosuroides (ALOMY); assay: C. Herbicidal pre-emergence efficacy, ALOMY; conditions: scored after about 3 weeks
In short: (§2)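 Pre-emergence test: formulated compounds sprayed as aqueous suspension or emulsion with 0.5% additive at 600 l/ha onto soil covering sown seeds, at rates corresponding to 320 g/ha or less. After about 3 weeks in greenhouse, efficacy scored visually as percent versus untreated controls (100% = plants dead).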

Setaria viridis (SETVI) [5] = assay: C. Herbicidal pre-emergence efficacy, SETVI; conditions: scored after about 3 weeks
In short: as §2

Kochia scoparia (KCHSC) [6] = assay: C. Herbicidal pre-emergence efficacy, KCHSC
In short: as §2

[7] = tested on: Amaranthus retroflexus (AMARE); assay: E. Herbicidal post-emergence efficacy, AMARE
In short: (§3)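 Compounds applied at 320 g/ha or less as a foliar spray (600 l/ha, 0.5% additive) to one-leaf-stage greenhouse plants grown in sandy loam. Damage is visually scored in percent relative to untreated plants after about 3 weeks.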

Setaria viridis (SETVI) [8] = assay: E. Herbicidal post-emergence efficacy, SETVI
In short: as §3

SMILES	Pre-emergence efficacy against ABUTH ([1]; 80 g/ha)	Pre-emergence efficacy against ABUTH ([1]; 320 g/ha)	Pre-emergence efficacy against ABUTH ([1]; 1280 g/ha)	Pre-emergence efficacy against DIGSA ([2]; 80 g/ha)	Pre-emergence efficacy against DIGSA ([2]; 320 g/ha)	Pre-emergence efficacy against DIGSA ([2]; 1280 g/ha)	Post-emergence efficacy against KCHSC in % (Kochia scoparia (KCHSC) [3]; 80 g/ha)	Post-emergence efficacy against KCHSC in % (Kochia scoparia (KCHSC) [3]; 320 g/ha)	Post-emergence efficacy against KCHSC (Kochia scoparia (KCHSC) [3])	Pre-emergence efficacy against ALOMY ([4]; 80 g/ha)	Pre-emergence efficacy against ALOMY ([4]; 320 g/ha)	Pre-emergence efficacy against SETVI (Setaria viridis (SETVI) [5]; 80 g/ha)	Pre-emergence efficacy against SETVI (Setaria viridis (SETVI) [5]; 320 g/ha)	Pre-emergence efficacy against KCHSC in % (Kochia scoparia (KCHSC) [6]; application rate 80 g/ha)	Pre-emergence efficacy against KCHSC in % (Kochia scoparia (KCHSC) [6]; application rate 320 g/ha)	Post-emergence efficacy against AMARE in % ([7]; application rate 80 g/ha)	Post-emergence efficacy against AMARE in % ([7]; application rate 320 g/ha)	Post-emergence efficacy against SETVI in % (Setaria viridis (SETVI) [8]; application rate 320 g/ha)	Post-emergence efficacy against SETVI in % (Setaria viridis (SETVI) [8]; application rate 80 g/ha)
O=S(=O)(CCC(F)(F)F)Oc1c(F)cccc1Oc1ncc(F)cn1 [Example I-47]	100%	100%	100%	100%	100%	100%	100%	100%	100%	100%	100%	100%	100%	100%	100%	100%	100%	100%	–
O=S(=O)(CCCC(F)(F)F)Oc1c(Cl)cccc1Oc1ncc(Cl)cn1 [Example I-39]	90%	100%	100%	100%	100%	100%	90%	90%	90%	–	100%	100%	100%	100%	100%	100%	100%	100%	100%
O=S(=O)(CCCC(F)(F)F)Oc1c(Cl)cccc1Oc1ncc(Br)cn1 [Example I-34]	–	–	90%	–	–	90%	100%	100%	100%	–	80%	80%	100%	90%	100%	100%	100%	90%	90%
O=S(=O)(CCC(F)(F)F)Oc1c(F)cccc1Oc1ncc(Cl)cn1 [Example I-48]	90%	100%	100%	100%	100%	100%	90%	90%	90%	100%	100%	100%	100%	100%	100%	100%	100%	100%	100%
O=S(=O)(CCCC(F)(F)F)Oc1c(F)cccc1Oc1ncc(Cl)cn1 [Example I-49]	100%	100%	100%	90%	90%	90%	90%	90%	100%	100%	100%	100%	100%	100%	100%	100%	100%	100%	100%
O=S(=O)(CCC(F)(F)F)Oc1c(Cl)cccc1Oc1ncc(Cl)cn1 [Example I-38]	100%	100%	100%	–	100%	100%	–	90%	90%	–	100%	100%	100%	100%	100%	100%	100%	100%	100%
Cc1cccc(Oc2ncc(F)cn2)c1OS(=O)(=O)CCCC(F)(F)F [Example I-46]	90%	100%	100%	90%	100%	100%	–	–	100%	–	100%	100%	100%	–	100%	–	90%	80%	–
